How the values were obtained:
Assay in all cases: Test B pre-/postemergence plant response
Type in all cases: in vivo
[1] = test system: Russian thistle (Salsola iberica); conditions: Preemergence
Procedure, shortened: (§1)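 Preemergence and postemergence (plants 2-18 cm, 1- to 4-leaf stage) applications used test chemicals in a non-phytotoxic solvent with surfactant. Plants were held in a greenhouse 13 to 15 days, then rated visually against controls on a 0-100 scale (0 no effect, 100 complete control).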

[2] = test system: blackgrass (Alopecurus myosuroides)
Procedure, shortened: as §1

[3] = test system: catchweed bedstraw (Galium aparine); conditions: Preemergence
Procedure, shortened: as §1

[4] = test system: cocklebur (Xanthium strumarium)
Procedure, shortened: as §1

[5] = test system: common ragweed (Ambrosia elation)
Procedure, shortened: as §1

corn (Zea mays) = test system: corn (Zea mays)
Procedure, shortened: as §1

[6] = test system: goosegrass (Eleusine indica)
Procedure, shortened: as §1

[7] = test system: johnsongrass (Sorghum halepense)
Procedure, shortened: as §1

[8] = test system: large crabgrass (Digitaria sanguinalis)
Procedure, shortened: as §1

[9] = test system: velvetleaf (Abutilon theophrasti)
Procedure, shortened: as §1

wild oat (Avena fatua) = test system: wild oat (Avena fatua)
Procedure, shortened: as §1

[10] = test system: woolly cupgrass (Eriochloa villosa)
Procedure, shortened: as §1

[11] = test system: yellow nutsedge (Cyperus esculentus)
Procedure, shortened: as §1

[12] = 8 g ai/ha, scale 0 to 100 (0 no effect, 100 complete control)
[13] = 31 g ai/ha, scale 0 to 100 (0 no effect, 100 complete control)
[14] = 62 g ai/ha, 0 to 100 scale, 0 no effect, 100 complete control
[15] = 8 g ai/ha, postemergence, 0-100 scale
[16] = Postemergence, 16 g ai/ha, scale 0 to 100
[17] = Postemergence, 31 g ai/ha, scale 0 to 100
[18] = Postemergence, 62 g ai/ha, scale 0 to 100, 0 no effect, 100 complete control
[19] = Preemergence, 8 g ai/ha, scale 0 to 100 (0 no effect, 100 complete control)
[20] = Preemergence, 31 g ai/ha, scale 0 to 100 (0 no effect, 100 complete control)
[21] = Preemergence, 62 g ai/ha, 0 to 100 scale, 0 no effect, 100 complete control
[22] = Preemergence, 16 g ai/ha, scale 0 to 100
[23] = 16 g ai/ha, postemergence, 0-100 scale

## Cc1nn(C)c(=O)c(-n2nc(-c3ccc(Br)cc3)cc2C)c1O [Compound 81]
[1]; [12]
  Russian Thistle plant response rating: 0
[1]; [13]
  Plant response rating, Russian Thistle: 0
[1]; [14]
  Plant response rating, Russian Thistle: 0
[1]; 16 g ai/ha, scale 0 to 100
  Russian Thistle plant response rating: 0
[2]; [15]
  Blackgrass plant response rating: 85
[2]; [16]
  Plant response rating, Blackgrass: 90
[2]; [17]
  Plant response rating, Blackgrass: 98
[2]; [18]
  Plant response rating, Blackgrass: 100
[2]; [19]
  Blackgrass plant response rating: 80
[2]; [20]
  Plant response rating, Blackgrass: 100
[2]; [21]
  Plant response rating, Blackgrass: 100
[2]; [22]
  Blackgrass plant response rating: 85
[3]; [12]
  Galium plant response rating: 0
[3]; [13]
  Plant response rating, Galium: 0
[3]; [14]
  Plant response rating, Galium: 0
[3]; 16 g ai/ha, scale 0 to 100
  Galium plant response rating: 0
[4]; [15]
  Cocklebur plant response rating: 0
[4]; [16]
  Plant response rating, Cocklebur: 0
[4]; [17]
  Plant response rating, Cocklebur: 0
[4]; [18]
  Plant response rating, Cocklebur: 0
[4]; [19]
  Cocklebur plant response rating: 0
[4]; [20]
  Plant response rating, Cocklebur: 0
[4]; [21]
  Plant response rating, Cocklebur: 0
[4]; [22]
  Cocklebur plant response rating: 0
[5]; [15]
  Ragweed plant response rating: 0
[5]; [23]
  Ragweed plant response rating: 0
[5]; [17]
  Plant response rating, Ragweed: 0
[5]; [18]
  Plant response rating, Ragweed: 20
[5]; [19]
  Ragweed plant response rating: 0
[5]; [20]
  Plant response rating, Ragweed: 0
[5]; [21]
  Plant response rating, Ragweed: 0
[5]; [22]
  Ragweed plant response rating: 0
Corn (Zea mays); [15]
  Corn plant response rating: 45
Corn (Zea mays); [16]
  Plant response rating, Corn: 100
Corn (Zea mays); [17]
  Plant response rating, Corn: 100
Corn (Zea mays); [18]
  Plant response rating, Corn: 100
Corn (Zea mays); [19]
  Corn plant response rating: 65
Corn (Zea mays); [20]
  Plant response rating, Corn: 98
Corn (Zea mays); [21]
  Plant response rating, Corn: 100
Corn (Zea mays); [22]
  Corn plant response rating: 70
[6]; [15]
  Goosegrass plant response rating: 65
[6]; [23]
  Goosegrass plant response rating: 70
[6]; [17]
  Plant response rating, Goosegrass: 80
[6]; [18]
  Plant response rating, Goosegrass: 85
[6]; [19]
  Goosegrass plant response rating: 80
[6]; [20]
  Plant response rating, Goosegrass: 100
[6]; [21]
  Plant response rating, Goosegrass: 100
[6]; [22]
  Goosegrass plant response rating: 98
[7]; [15]
  Johnsongrass plant response rating: 75
[7]; [23]
  Johnsongrass plant response rating: 95
[7]; [18]
  Plant response rating, Johnsongrass: 100
[7]; [19]
  Johnsongrass plant response rating: 60
[7]; [20]
  Plant response rating, Johnsongrass: 95
[7]; [21]
  Plant response rating, Johnsongrass: 95
[7]; [22]
  Johnsongrass plant response rating: 80
[8]; [15]
  Crabgrass, Large plant response rating: 50
[8]; [16]
  Plant response rating, Crabgrass, Large: 98
[8]; [17]
  Plant response rating, Crabgrass, Large: 100
[8]; [18]
  Plant response rating, Crabgrass, Large: 100
[8]; [19]
  Crabgrass, Large plant response rating: 65
[8]; [20]
  Plant response rating, Crabgrass, Large: 100
[8]; [21]
  Plant response rating, Crabgrass, Large: 100
[8]; [22]
  Crabgrass, Large plant response rating: 98
[9]; [15]
  Velvetleaf plant response rating: 0
[9]; [23]
  Velvetleaf plant response rating: 0
[9]; [17]
  Plant response rating, Velvetleaf: 0
[9]; [18]
  Plant response rating, Velvetleaf: 0
[9]; [19]
  Velvetleaf plant response rating: 0
[9]; [20]
  Plant response rating, Velvetleaf: 0
[9]; [21]
  Plant response rating, Velvetleaf: 0
[9]; [22]
  Velvetleaf plant response rating: 0
Wild oat (Avena fatua); [15]
  Oat, Wild plant response rating: 80
Wild oat (Avena fatua); [23]
  Oat, Wild plant response rating: 95
Wild oat (Avena fatua); [17]
  Plant response rating, Oat, Wild: 100
Wild oat (Avena fatua); [18]
  Plant response rating, Oat, Wild: 100
Wild oat (Avena fatua); [19]
  Oat, Wild plant response rating: 45
Wild oat (Avena fatua); [20]
  Plant response rating, Oat, Wild: 70
Wild oat (Avena fatua); [21]
  Plant response rating, Oat, Wild: 85
Wild oat (Avena fatua); [22]
  Oat, Wild plant response rating: 60
[10]; [15]
  Cupgrass, Woolly plant response rating: 75
[10]; [16]
  Plant response rating, Cupgrass, Woolly: 85
[10]; [17]
  Plant response rating, Cupgrass, Woolly: 95
[10]; [18]
  Plant response rating, Cupgrass, Woolly: 98
[10]; [19]
  Cupgrass, Woolly plant response rating: 20
[10]; [20]
  Plant response rating, Cupgrass, Woolly: 95
[10]; [21]
  Plant response rating, Cupgrass, Woolly: 98
[10]; [22]
  Cupgrass, Woolly plant response rating: 45
[11]; [15]
  Nutsedge, Yellow plant response rating: 0
[11]; [23]
  Nutsedge, Yellow plant response rating: 0
[11]; [17]
  Plant response rating, Nutsedge, Yellow: 0
[11]; [18]
  Plant response rating, Nutsedge, Yellow: 0
[11]; [19]
  Nutsedge, Yellow plant response rating: 0
[11]; [20]
  Plant response rating, Nutsedge, Yellow: 0
[11]; [21]
  Plant response rating, Nutsedge, Yellow: 0
[11]; [22]
  Nutsedge, Yellow plant response rating: 0

— patent publication US20100267561A1, “HERBICIDAL PYRIDAZINONE DERIVATIVES” (priority 2007, published 2010)
